Tests used:
[1] = molecular target: T1, CYP11B1 (steroid 11-hydroxylase) (Homo sapiens, UniProt P15538); assay: Inhibition of cortisol secretion in NCI-H295R cells; format: cell-based; conditions: human adrenocortical carcinoma NCI-H295R cells, 24 hours with cell stimulant
T1 construct: the NCI-H295R cells have CYP11B2 (aldosterone synthase) and CYP11B1 (steroid 11-hydroxylase); host or cells: NCI-H295R
T1 sequence (P15538 25-503): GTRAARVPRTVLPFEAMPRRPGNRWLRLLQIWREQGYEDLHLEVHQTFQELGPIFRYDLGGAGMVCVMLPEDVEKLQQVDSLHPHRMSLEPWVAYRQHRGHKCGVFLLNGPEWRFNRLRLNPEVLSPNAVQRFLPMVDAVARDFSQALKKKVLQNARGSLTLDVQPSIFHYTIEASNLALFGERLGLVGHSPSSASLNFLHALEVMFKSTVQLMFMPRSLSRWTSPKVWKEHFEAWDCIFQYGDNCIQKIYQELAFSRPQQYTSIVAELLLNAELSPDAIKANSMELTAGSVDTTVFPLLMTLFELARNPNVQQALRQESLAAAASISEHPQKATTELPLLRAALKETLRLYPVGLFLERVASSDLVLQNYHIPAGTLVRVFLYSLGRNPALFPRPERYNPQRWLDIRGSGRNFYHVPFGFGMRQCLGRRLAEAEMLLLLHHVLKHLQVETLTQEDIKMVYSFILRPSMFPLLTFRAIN
Text: (§1) The activities of a compound according to the present invention can be assessed by the following in vitro method well-described in the art.
(§2) In particular, the inhibition of aldosterone and cortisol secretion in vitro can be determined by the following assay.
(§3) The cell line NCI-H295R was originally isolated from an adrenocortical carcinoma and has been characterized in the literature through the stimulable secretion of steroid hormones and the presence of the enzymes essential for steroidogenesis. The cells show the physiological property of zonally undifferentiated human foetal adrenocortical cells which, however, have the capacity to produce the steroid hormones which are formed in the three phenotypically distinguishable zones in the adult adrenal cortex. Thus, the NCI-H295R cells have CYP11B2 (aldosterone synthase) and CYP11B1 (steroid 11-hydroxylase).
(§4) The human adrenocortical carcinoma NCI-H295R cell line is obtained from American Type Culture Collection (Manassas, Va.). Insulin/transferrin/selenium (ITS)-A supplement (100×), DMEM/F-12, antibiotic/antimycotic (100×), and fetal calf serum (FCS) are purchased from Invitrogen (Carlsbad, Calif.). Anti-mouse PVT scintillation proximity assay (SPA) beads and NBS 96-well plates are obtained from Amersham (Piscataway, N.J.) and Corning (Acton, Mass.), respectively. Clear bottom 96-well flat bottom plates are purchased from Costar (Corning, N.Y.). Aldosterone and angiotensin (Ang II) are purchased from Sigma (St. Louis, Mo.). D[1,2,6,7-3H(N)]aldosterone and [1,2,6,7-3H(N)]cortisol are acquired from PerkinElmer (Boston, Mass.). Nu-serum is a product of BD Biosciences (Franklin Lakes, N.J.).
(§5) For in vitro measurement of aldosterone and cortisol activity, human adrenocortical carcinoma NCI-H295R cells are seeded in NBS 96-well plates at a density of 25,000 cells/well in 100 μL of a growth medium containing DMEM/F12 supplemented with 10% FCS, 2.5% Nu-serum, 1 μg ITS/ml, and 1× antibiotic/antimycotic. The medium is changed after culturing for 3 days at 37° C. under an atmosphere of 5% CO2/95% air. On the following day, cells are rinsed with 100 μL of DMEM/F12 and incubated in quadruplicate wells at 37° C. for 24 hours with 100 μL of treatment medium containing a cell stimulant and a compound at different concentrations. […] Cell stimulants which can be used are angiotensin-II (1 micromolar), potassium ions (16 millimolar), forskolin (10 micromolar) or a combination of two stimulants. At the end of incubation, the excretion of aldosterone and cortisol into the culture medium can be detected and quantified by commercially available, specific monoclonal antibodies in radioimmunoassays in accordance with the manufacturer's instructions.
(§6) Measurement of aldosterone can also be performed using a 96-well plate format. Each test sample is incubated with 0.02 μCi of D[1,2,6,7-3H(N)]aldosterone and 0.3 μg of anti-aldosterone antibody in phosphate-buffered saline (PBS) containing 0.1% Triton X-100, 0.1% bovine serum albumin, and 12% glycerol in a total volume of 200 μL at room temperature for 1 hour. Anti-mouse PVT SPA beads (50 μL) are then added to each well and incubated overnight at room temperature prior to counting in a Microbeta plate counter. The amount of aldosterone in each sample is calculated by comparing with a standard curve generated using known quantities of the hormone. Measurement of cortisol can be performed in a manner similar to that of aldosterone, except that [1,2,6,7-3H(N)]cortisol is used.
(§7) Inhibition of the release of a steroid can be used as a measure of the respective enzyme inhibition by the added test compounds. The dose-dependent inhibition of enzymatic activity by a compound is calculated by means of an inhibition plot which is characterized by an IC50. […] The inhibition plot is calculated by fitting a 4-parameter logistic function to the raw data points using the least squares method.

[2] = molecular target: T2, CYP11B2 (aldosterone synthase) (Homo sapiens, UniProt P19099); assay: Inhibition of aldosterone secretion in NCI-H295R cells; format: cell-based; conditions: human adrenocortical carcinoma NCI-H295R cells, 24 hours with cell stimulant
T2 construct: the NCI-H295R cells have CYP11B2 (aldosterone synthase) and CYP11B1 (steroid 11-hydroxylase); host or cells: NCI-H295R
T2 sequence (P19099 25-503): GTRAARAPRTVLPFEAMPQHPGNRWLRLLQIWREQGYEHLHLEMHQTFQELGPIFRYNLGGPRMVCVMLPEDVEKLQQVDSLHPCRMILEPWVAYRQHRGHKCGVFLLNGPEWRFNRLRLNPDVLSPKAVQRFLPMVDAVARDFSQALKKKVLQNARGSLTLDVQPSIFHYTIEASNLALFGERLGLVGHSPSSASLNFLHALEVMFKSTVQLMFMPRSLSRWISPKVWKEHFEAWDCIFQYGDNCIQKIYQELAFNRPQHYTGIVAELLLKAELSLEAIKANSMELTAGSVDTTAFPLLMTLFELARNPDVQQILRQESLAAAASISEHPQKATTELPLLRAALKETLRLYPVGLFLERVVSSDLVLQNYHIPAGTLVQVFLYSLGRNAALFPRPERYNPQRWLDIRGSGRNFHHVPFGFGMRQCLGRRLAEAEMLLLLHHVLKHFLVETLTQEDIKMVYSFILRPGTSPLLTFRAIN
Text: as §1, §2, §3, §4, §5, §6, §7

Row | SMILES | IC50 [1] | IC50 [2]
1 | CC(C)C(=O)C1(CNc2cncc(-c3cc4ccccc4n3C)c2)CCC1 [Example 214, 2-Methyl-1-(1-{[5-(1-methyl-1H-indol-2-yl)-pyridin-3-ylamino]-methyl}-cyclobutyl)-propan-1-one] | 377 nM | 56 nM
2 | COCCc1cncc(-c2c(C#N)c3ccccc3n2C)c1 [Example 217, 2-[5-(2-Methoxy-ethyl)-pyridin-3-yl]-1-methyl-1H-indole-3-carbonitrile] | 22 nM | 4 nM
3 | CCS(=O)(=O)Nc1cncc(-c2cc3ccccc3n2C)c1 [Example 226, Ethanesulfonic acid [5-(1-methyl-1H-indol-2-yl)-pyridin-3-yl]-amide] | 345 nM | 36 nM
4 | CN(C)S(=O)(=O)Nc1cncc(-c2cc3ccccc3n2C)c1 [Example 228] | > 1000 nM | 105 nM
5 | CCc1c(-c2cncc(NS(=O)(=O)CC)c2)n(C)c2ccccc12 [Example 229, Ethanesulfonic acid [5-(1-methyl-3-ethyl-1H-indol-2-yl)-pyridin-3-yl]-amide] | 125 nM | 5 nM
6 | CCS(=O)(=O)N(C)c1cncc(-c2cc3ccccc3n2C)c1 [Example 231, Ethanesulfonic acid methyl-[5-(1-methyl-1H-indol-2-yl)-pyridin-3-yl]-amide] | 51 nM | 2 nM
7 | CCS(=O)(=O)Nc1cncc(-c2c(C)c3ccccc3n2C)c1 [Example 236, Ethanesulfonic acid [5-(1,3-dimethyl-1H-indol-2-yl)-pyridin-3-yl)-amide] | 1100 nM | 21 nM
8 | CCS(=O)(=O)NCc1cncc(-c2c(C)c3ccccc3n2C)c1 [Example 237, N-((5-(1,3-Dimethyl-1H-indol-2-yl)pyridin-3-yl)methyl)ethanesulfonamide] | 1610 nM | 5 nM
9 | CCS(=O)(=O)Nc1cncc(-c2c(COC)c3ccc(Cl)cc3n2C)c1 [Example 238, Ethanesulfonic acid [5-(1-methyl-3-methoxymethyl-6-chloro-1H-indol-2-yl)-pyridin-3-yl)-amide] | > 1000 nM | 44 nM
10 | CCNS(=O)(=O)c1cncc(-c2cc3ccccc3n2C)c1 [Example 242, N-ethyl-5-(1-methyl-1H-indol-2-yl)pyridine-3-sulfonamide] | > 1000 nM | 23 nM
